We go through 2 molecules from US5235045A, “Non-azo naphthalimide dyes” (priority 1992, dated 1993).

In general, viability refers to a read-out of living cells in per cent, often relative to untreated cells.

In one series the test system is H9 cells. The series can be described thus: Effect of Ed6Br and 420 nm light on H9 cells (Trypan Blue). It is filed as cell-based, human. Also noted: live cells / dead cells: unit not given here. Here is the method: H9 cells (an immortal human T-cell lymphoma) were cultured in RPMI-1640 medium containing 10% additional fetal calf serum hold in air with a 5% CO2 atmosphere at 37.5° C. to a cell density in the range of 10^5 -10^7 per ml. Cells were, harvested by centrifugation and six 3ml. […] The remaining 3 samples wrapped in aluminum foil were handled identically but not irradiated. Immediately after irradiation, the cells in all samples were sedimented by centrifugation at 450 x g for 10 minutes and the cell pellets individually resuspended to the original 3 ml volume of RPMI-1640 containing an additional 10% fetal calf serum plus Gentamycin antibiotic. The samples were incubated for 24 hr. under normal culture conditions cited above. Cell viability was assessed by Trypan Blue dye exclusion counts using a standard hemocytometer after 24 hr incubation. […]

A further series concerns cytochrome c. The series can be described thus: Effect of irradiation on membrane-bound protein function: oxidation of vesicle-bound cytochrome c by CO(phen)3^3+. It is filed as biochemical. To be noted: 1×10^-7 M dye, irradiated; pH 7.5, 20° C.; without dye 25±1. Here is the method:
Cytochrome C, a mitochondrial protein which is peripherally associated with membranes was studied as a model for the effect of photomodification of the membrane lipids on protein function. At pH 7.5 and 20° C., the rate of oxidation of vesicle-bound cytochrome c (7×10^-6 M) by CO(phen)3^3 + was 25±1 s^-1. Upon addition of Compound VII (1×10^-7 M) to the vesicles containing reduced cytochrome c, and subsequent irradiation as described above, the rate constant for oxidation of the bound cytochrome c under the same conditions was reduced to 2±1 s^-1.

Series [1] relates to Human immunodeficiency virus (HIV). The series can be described thus: Effect of DiEd6Br and light on HIV (MTT viability of MT-4 cells). It is filed as cell-based. To be noted: for Optical Density (MTT, MT-4 cells): mean of triplicate, 570 nm.
The subject of series [2] is Herpes simplex virus type 1. The series can be described thus: Effect of DiEd6Br and light on HSV-1 containing 15% fetal calf serum (plaque assay). It is filed as cell-based, MacIntyre strain.
The mark [3] stands for this setting: 5 μM, irradiated 10 J/cm^2, 420 nm.
Setting [4] is: 25 μM, irradiated 10 J/cm^2, 420 nm.

As to `CCCCCCNc1c(Br)cc2c3c(cccc13)C(=O)N(CCCCCC)C2=O` [Compound VII, 3-bromo-4-(hexyl)amino-N-hexyl-1,8-naphthalimide], the Cells/ml in the series with H9 cells (5 μM, dark) is listed as 7.70 × 10^5 Cells/ml; with H9 cells (setting [3]) it was 0.0 Cells/ml; with H9 cells (25 μM, dark), 9.9 × 10^5 Cells/ml; with H9 cells (setting [4]), 0.0 Cells/ml. In addition, the “dead cells” value in the series on H9 cells (5 μM, dark) is 12; with H9 cells (setting [3]) it was 47; with H9 cells (25 μM, dark) it was 11; in the series on H9 cells (setting [4]), 41. Moreover, the “live cells” value with H9 cells (5 μM, dark) is given as 77; in the series with H9 cells (setting [3]) it was 0; in the series on H9 cells (25 μM, dark), 99; in the series with H9 cells (setting [4]) it was 0. Besides, the “H9 cells inactivated or killed” value with H9 cells (5 mM or greater (so in the source), activated by light, 1440 min) is listed as about 100%. Besides, in the series on H9 cells (Homo sapiens, H9, 24 h, 25 µM, dark, printed approximately 10% or less, read-out: cells inactivated in absence of light), the cytotoxicity at 25 µM is at most 10%. For the same molecule, the viability at 5 µM with H9 cells (Homo sapiens, H9, light or radiation study, 24 h, 5 μM, irradiated 10 J/cm^2, 420 nm) worked out at 0%. The molecule further returned a viability at 25 µM with H9 cells (Homo sapiens, H9, light or radiation study, 24 h, 25 μM, irradiated 10 J/cm^2, 420 nm) of 0%. Also, in the series with cytochrome c, the “rate constant for oxidation of bound cytochrome c” value was found to be 2 ± 1 s⁻¹.
In the case of `CCCCCCN1C(=O)c2cccc3c(NCCNC(=O)CCCCC(=O)NCCNc4c(Br)cc5c6c(cccc46)C(=O)N(CCCCCC)C5=O)c(Br)cc(c23)C1=O` [Compound XLIV], the “Optical Density (MTT, MT-4 cells)” value stood at 0.541 in series [1] (1.25 μM, 0 J/cm^2); 1.242 in series [1] (1.25 μM, 20 J/cm^2); 0.290 in series [1] (2.5 μM, 0 J/cm^2); 1.309 in series [1] (2.5 μM, 20 J/cm^2); 0.559 in series [1] (5 μM, 0 J/cm^2); 1.337 in series [1] (5 μM, 20 J/cm^2). The “inactivation of HIV” value in series [1] (1.25 mM or greater (so in the source), light treated) was “essentially complete inactivation of HIV”. In addition, the PFU/ml in series [2] (1.25 μM, 15% fetal calf serum, 20 J/cm2, 420 nm) was 0 PFU/ml; in series [2] (2.5 μM, 15% fetal calf serum, 20 J/cm2, 420 nm), 0 PFU/ml; in series [2] (5 μM, 15% fetal calf serum, 20 J/cm2, 420 nm), 0 PFU/ml; in series [2] (10 μM, 15% fetal calf serum, 20 J/cm2, 420 nm) it was 0 PFU/ml; in series [2] (.078 μM, 15% fetal calf serum, 20 J/cm2, 420 nm), 4.2 × 10^4 PFU/ml; in series [2] (.156 μM, 15% fetal calf serum, 20 J/cm2, 420 nm), 4.5 × 10^3 PFU/ml. For the same molecule, the PFU/ml is given as 8.5 × 10^1 PFU/ml in series [2] (.312 μM, 15% fetal calf serum, 20 J/cm2, 420 nm) and 6.0 × 10^1 PFU/ml in series [2] (.625 μM, 15% fetal calf serum, 20 J/cm2, 420 nm). In addition, in series [2] (Human alphaherpesvirus 1, light or radiation study, 1.25 μM, 15% fetal calf serum, 20 J/cm2, 420 nm, read-out: Log10 Reduction), the log reduction at 1.25 µM was at least 5. For the same molecule, the log reduction at 2.5 µM in series [2] (Human alphaherpesvirus 1, light or radiation study, 2.5 μM, 15% fetal calf serum, 20 J/cm2, 420 nm, read-out: Log10 Reduction) is at least 5. In series [2] (Human alphaherpesvirus 1, light or radiation study, 5 μM, 15% fetal calf serum, 20 J/cm2, 420 nm, read-out: Log10 Reduction), the log reduction at 5 µM is at least 5. Further, the log reduction at 10 µM in series [2] (Human alphaherpesvirus 1, light or radiation study, 10 μM, 15% fetal calf serum, 20 J/cm2, 420 nm, read-out: Log10 Reduction) is at least 5. In series [2] (Human alphaherpesvirus 1, light or radiation study, .078 μM, 15% fetal calf serum, 20 J/cm2, 420 nm, read-out: Log10 Reduction), the log reduction at 0.078 µM came out at 0.38. In addition, the log reduction at 0.156 µM in series [2] (Human alphaherpesvirus 1, light or radiation study, .156 μM, 15% fetal calf serum, 20 J/cm2, 420 nm, read-out: Log10 Reduction) was 1.35. In addition, the log reduction at 0.312 µM in series [2] (Human alphaherpesvirus 1, light or radiation study, .312 μM, 15% fetal calf serum, 20 J/cm2, 420 nm, read-out: Log10 Reduction) came out at 3.1. For the same molecule, the log reduction at 0.625 µM in series [2] (Human alphaherpesvirus 1, light or radiation study, .625 μM, 15% fetal calf serum, 20 J/cm2, 420 nm, read-out: Log10 Reduction) was found to be 4. Moreover, the “kill of HSV-1” value in series [2] (as low as 0.156 mM, 420 nm, 20 J/cm^2) is recorded as over 99.99%.
